Several values for one entry are separate records, joined by “and”; a condition that tells them apart may be missing. Equal entries are not always repeated. Entries after “also recorded” stand apart in the source; their conditions may differ.
Test system: female subjects with normal hepatic function, mild, moderate or severe hepatic impairment
Test: Safety and tolerability (TEAEs, clinical laboratory, vital signs, physical examination) after a single oral dose of 20 mg E4 monohydrate in the hepatic impairment study
Assay type: in vivo, human
Method: This was a Phase 1, multi-centre, open-label, PK, and safety study of a single oral dose of 20 mg E4 monohydrate in female subjects with normal hepatic function (Group 1), mild hepatic impairment (Group 2), moderate hepatic impairment (Group 3), and severe hepatic impairment (Group 4), as defined using the Child-Pugh classification at Screening.
Safety and tolerability assessments consisted of treatment-emergent AEs (TEAEs), clinical laboratory, vital signs, physical examination, and gynecological examination. Assessments were performed in accordance with Table 2 and Table 3 in Section 2.5.1.
AEs/TEAEs were recorded after signing of the ICF until completion of the follow up visit. Any clinically significant observations in results of clinical laboratory, vital signs, or physical examinations were recorded as AEs.
A TEAE is defined as any event not present prior to administration of the study drug or any event already present that worsens in either severity or frequency following exposure to the study drug.
The below listed tests were to be performed by the local laboratories at time points indicated in the Schedule of Assessments (Table 2).
Systolic and diastolic blood pressure and pulse were recorded after the subject had been resting for at least 5 minutes in the supine position at time points indicated in the Schedule of Assessments (Table 2). These assessments were made using an automated device. Body temperature and respiratory rate were measured subsequently.
A complete physical examination consisting of a review of all body systems was performed at time points indicated in the Schedule of Assessments (Table 2). A symptom-directed physical examination could be conducted at any time per Investigator's discretion.
2.6.2.2 Evaluation of Safety and Tolerability Safety and tolerability were assessed through TEAEs, clinical laboratory, vital signs, and physical examination findings, and any other parameter that was relevant for safety assessment.
A listing of all individual AEs is provided. Summary tables of TEAEs are presented by system organ class (SOC) based on the MedDRA terminology list (preferred terms): a table containing the number of subjects experiencing AEs by hepatic function, a table containing the number of subjects experiencing SAEs by hepatic function (if applicable), a table by hepatic function and relationship, and a table by hepatic function and severity.

[1] = Mild (N = 8), single oral dose 20 mg E4
[2] = Moderate (N = 8), single oral dose 20 mg E4
[3] = Normal (N = 8), single oral dose 20 mg E4
[4] = Severe (N = 8), single oral dose 20 mg E4
[5] = Total (N = 32), single oral dose 20 mg E4
[6] = all 32 subjects, single oral dose 20 mg E4
[7] = moderate hepatic impairment group

C[C@]12CC[C@@H]3c4ccc(O)cc4CC[C@H]3[C@@H]1[C@@H](O)[C@@H](O)[C@@H]2O [E4, 1,3,5 (10)-estratrien-3,15alpha, 16alpha, 17beta-tetrol]
Subjects by maximum relationship to study drug: Not related [1]: 2 (25.0) n (%)
Subjects by maximum relationship to study drug: Related [1]: 0 n (%)
Subjects with TEAEs by maximum severity: Mild [1]: 2 (25.0) n (%)
Subjects with TEAEs by maximum severity: Moderate [1]: 0 n (%)
Subjects with at least one AE [1]: 2 (25.0) n (%)
Subjects with at least one SAE [1]: 0 n (%)
Subjects with at least one TEAE [1]: 2 n (%) and 2 (25.0) n (%)
Subjects with at least one TEAE leading to study drug discontinuation [1]: 0 n (%)
Subjects by maximum relationship to study drug: Not related [2]: 3 (37.5) n (%)
Subjects by maximum relationship to study drug: Related [2]: 1 (12.5) n (%)
Subjects with TEAEs by maximum severity: Mild [2]: 3 (37.5) n (%)
Subjects with TEAEs by maximum severity: Moderate [2]: 1 (12.5) n (%)
Subjects with at least one AE [2]: 4 (50.0) n (%)
Subjects with at least one SAE [2]: 0 n (%)
Subjects with at least one TEAE [2]: 4 n (%) and 4 (50.0) n (%)
Subjects with at least one TEAE leading to study drug discontinuation [2]: 0 n (%)
Subjects by maximum relationship to study drug: Not related [3]: 2 (25.0) n (%)
Subjects by maximum relationship to study drug: Related [3]: 0 n (%)
Subjects with TEAEs by maximum severity: Mild [3]: 0 n (%)
Subjects with TEAEs by maximum severity: Moderate [3]: 2 (25.0) n (%)
Subjects with at least one AE [3]: 2 (25.0) n (%)
Subjects with at least one SAE [3]: 0 n (%)
Subjects with at least one TEAE [3]: 2 n (%) and 2 (25.0) n (%)
Subjects with at least one TEAE leading to study drug discontinuation [3]: 0 n (%)
Subjects by maximum relationship to study drug: Not related [4]: 1 (12.5) n (%)
Subjects by maximum relationship to study drug: Related [4]: 0 n (%)
Subjects with TEAEs by maximum severity: Mild [4]: 1 (12.5) n (%)
Subjects with TEAEs by maximum severity: Moderate [4]: 0 n (%)
Subjects with at least one AE [4]: 1 (12.5) n (%)
Subjects with at least one SAE [4]: 0 n (%)
Subjects with at least one TEAE [4]: 1 n (%) and 1 (12.5) n (%)
Subjects with at least one TEAE leading to study drug discontinuation [4]: 0 n (%)
Subjects by maximum relationship to study drug: Related [5]: 1 n (%) and 1 (3.1) n (%)
Subjects with TEAEs by maximum severity: Moderate [5]: 3 n (%) and 3 (9.4) n (%)
Subjects with at least one AE [5]: 9 (28.1) n (%)
Subjects with at least one SAE [5]: 0 n (%)
Subjects with at least one TEAE [5]: 9 n (%) and 9 (28.1) n (%)
Subjects with at least one TEAE leading to study drug discontinuation [5]: 0 n (%)
subjects reporting TEAE back pain [6]: 2 subjects
subjects reporting TEAE diarrhea [6]: 3 subjects
subjects reporting TEAE headache [6]: 2 subjects
subjects reporting TEAE hypertension [6]: 2 subjects
laboratory values, changes and shifts from baseline (hematology, clinical chemistry) (all hepatic function groups): did not show deviations or trends which would raise safety concerns
number of TEAEs considered of mild intensity (all subjects): Eleven
number of TEAEs considered of moderate intensity (all subjects): 4 TEAEs
blood pressure, pulse rate, respiratory rate, body temperature (changes from baseline): showed no trends or clinically relevant changes
number of TEAEs considered related to the study drug (diarrhea, mild intensity, 1 subject in the moderate group): 1 TEAE
subjects with TEAE hypertension (mild hepatic impairment group): 2 subjects
subjects reporting TEAE diarrhea [7]: 2 subjects
subjects reporting TEAE headache [7]: 2 subjects
subjects reporting TEAE back pain (normal hepatic function group): 1 subjects
subjects reporting TEAE diarrhea (normal hepatic function group): 1 subjects
vital signs, laboratory values, physical examination (overall conclusion): unremarkable
subjects reporting TEAE back pain (severe hepatic impairment group): 1 subjects
deaths, SAEs, other significant AEs (whole study): no subjects with SAEs; also recorded: No deaths, SAEs, or other significant AEs occurred
